Read-outs that look alike come from different tables or passages of the source.
Experiments:
Format in all cases: cell-based
[1] = target: T1, human TAAR1 receptors (Homo sapiens, UniProt Q96RJ0); test: TAAR1 Agonism Assay: cAMP HTRF assay for Gs coupled receptor TAAR1 (Euroscreen FAST-0987C); details: CHO-K1 cells expressing human TAAR1, cAMP HTRF
T1 construct: host or cells: CHO-K1
T1 sequence (Q96RJ0 1-339): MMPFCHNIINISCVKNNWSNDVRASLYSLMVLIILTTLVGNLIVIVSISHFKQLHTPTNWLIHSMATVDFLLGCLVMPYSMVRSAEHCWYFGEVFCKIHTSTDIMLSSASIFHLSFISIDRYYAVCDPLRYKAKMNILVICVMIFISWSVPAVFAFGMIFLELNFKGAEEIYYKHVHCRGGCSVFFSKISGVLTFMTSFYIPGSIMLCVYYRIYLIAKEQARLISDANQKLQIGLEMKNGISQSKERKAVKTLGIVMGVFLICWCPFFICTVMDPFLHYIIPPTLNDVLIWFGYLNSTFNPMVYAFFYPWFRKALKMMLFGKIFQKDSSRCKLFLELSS
Method in brief: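 cAMP accumulation detected by HTRF fluorescence ratio, reagents added in lysis buffer and incubated 1 h at about room temperature. Beforehand, cells (about 3,000 per well) sat with test compound at ten concentrations from 0.3 to 10,000 nM in duplicate for roughly 30 min at about room temperature; tyramine dose-response run alongside.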

[2] = target: T2, human 5-HT2A receptor (Homo sapiens, UniProt P28223); test: 5HT2A Antagonism Assay (Euroscreen FAST-05051), IP-One HTRF
T2 construct: host or cells: CHO-K1
Method in brief: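 CHO-K1 cells expressing receptor, 20,000/well, co-incubated with test compound and reference agonist at its EC80 for 60 min at 37 °C. IP1 accumulation read by HTRF after ~1 h detection at room temperature. Compounds tested in duplicate at 0.3–10,000 nM.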

[3] = target: T3, human 5-HT7 receptor (Homo sapiens, UniProt P34969); test: 5HT7 Antagonism Assay (Euroscreen FAST-0499C), cAMP HTRF; details: CHO-K1 cells expressing human 5-HT7, reference agonist at EC80, cAMP HTRF
T3 construct: host or cells: CHO-K1
Method in brief: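 CHO-K1 cells expressing human 5-HT7, 3000 per well in Krebs-Ringer HEPES with 1 mM IBMX, were exposed for 30 minutes at room temperature to compound plus reference agonist at its EC80. cAMP was read by HTRF after 1 hour; compounds were tested in duplicate from 0.3 to 10,000 nM.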

[4] = read-out: 5-HT2A (IC50), CHO-K1 cells expressing human 5-HT2A, reference agonist at EC80, IP-One
[5] = 5-HT2A (IC50), CHO-K1 cells expressing human 5-HT2A, reference agonist at EC80, IP-One

T3 sequence (P34969 whole entry): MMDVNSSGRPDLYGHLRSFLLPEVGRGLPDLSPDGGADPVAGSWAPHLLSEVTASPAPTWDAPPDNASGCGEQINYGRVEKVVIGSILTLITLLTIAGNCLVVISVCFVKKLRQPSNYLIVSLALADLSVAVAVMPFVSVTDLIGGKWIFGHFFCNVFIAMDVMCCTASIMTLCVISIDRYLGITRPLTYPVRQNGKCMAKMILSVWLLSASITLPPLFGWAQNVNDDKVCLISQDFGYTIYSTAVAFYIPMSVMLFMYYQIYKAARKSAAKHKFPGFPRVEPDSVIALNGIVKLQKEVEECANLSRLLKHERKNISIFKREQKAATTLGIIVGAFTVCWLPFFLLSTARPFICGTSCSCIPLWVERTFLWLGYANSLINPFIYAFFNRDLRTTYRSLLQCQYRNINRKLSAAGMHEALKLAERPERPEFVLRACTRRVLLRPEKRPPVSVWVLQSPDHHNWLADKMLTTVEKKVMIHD
T2 sequence (P28223 whole entry): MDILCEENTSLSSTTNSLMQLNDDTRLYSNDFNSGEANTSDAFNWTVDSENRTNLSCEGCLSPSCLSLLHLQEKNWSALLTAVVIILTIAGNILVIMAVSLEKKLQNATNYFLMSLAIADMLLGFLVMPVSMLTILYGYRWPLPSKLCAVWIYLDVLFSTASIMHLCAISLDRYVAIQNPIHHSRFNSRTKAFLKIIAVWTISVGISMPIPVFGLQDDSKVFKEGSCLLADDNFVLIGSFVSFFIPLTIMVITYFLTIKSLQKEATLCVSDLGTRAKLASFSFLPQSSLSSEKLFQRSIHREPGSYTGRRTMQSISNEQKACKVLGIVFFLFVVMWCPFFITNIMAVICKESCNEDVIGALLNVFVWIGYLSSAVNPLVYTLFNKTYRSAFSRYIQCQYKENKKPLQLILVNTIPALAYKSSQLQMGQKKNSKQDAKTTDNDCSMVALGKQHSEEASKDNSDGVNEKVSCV

Row | Compound | EC50 [1] | IC50 [2, 4] | IC50 [3] | IC50 [2, 5]
1 | CNCC1Cc2cccc(F)c2Oc2ccccc21 (single isomer, unassigned) [Compound 87, (S*)-(4-fluoro-10,11-dihydrodibenzo[b,f]oxepin-10-yl)-N-methylmethanamine] | < 1000 nM | < 1000 nM | 1000 to 10000 nM | –
2 | NCC1Cc2ccc(F)cc2Oc2ccccc21 (single isomer, unassigned) [Compound 89, (S*)-(3-fluoro-10,11-dihydrodibenzo[b,f]oxepin-10-yl)methanamine] | < 1000 nM | – | ≥ 10000 nM | < 1000 nM
3 | CNCC1Cc2ccc(F)cc2Oc2ccccc21 (single isomer, unassigned) [Compound 90, (R*)-(3-fluoro-10,11-dihydrodibenzo[b,f]oxepin-10-yl)-N-methylmethanamine] | > 10000 nM | – | 1000 to 10000 nM | < 1000 nM
4 | CNCC1Cc2ccc(F)cc2Oc2ccccc21 (single isomer, unassigned) [Compound 91, (S*)-(3-fluoro-10,11-dihydrodibenzo[b,f]oxepin-10-yl)-N-methylmethanamine] | < 1000 nM | < 1000 nM | < 1000 nM | –
5 | NCC1Cc2ccccc2Oc2ccc(F)cc21 (single isomer, unassigned) [Compound 92, (R*)-(8-fluoro-10,11-dihydrodibenzo[b,f]oxepin-10-yl)methanamine] | < 1000 nM | – | ≥ 10000 nM | < 1000 nM
6 | CNCC1Cc2ccccc2Oc2ccc(F)cc21 (single isomer, unassigned) [Compound 94, (R*)-(8-fluoro-10,11-dihydrodibenzo[b,f]oxepin-10-yl)-N-methylmethanamine] | < 1000 nM | – | 1000 to 10000 nM | < 1000 nM
7 | CNCC1Cc2ccccc2Oc2ccc(F)cc21 (single isomer, unassigned) [Compound 95, (S*)-(8-fluoro-10,11-dihydrodibenzo[b,f]oxepin-10-yl)-N-methylmethanamine] | 1000 to 10000 nM | < 1000 nM | 1000 to 10000 nM | –
8 | NCC1Cc2cc(F)ccc2Oc2ccccc21 (single isomer, unassigned) [Compound 96, (R*)-(2-fluoro-10,11-dihydrodibenzo[b,f]oxepin-10-yl)methanamine] | < 1000 nM | – | ≥ 10000 nM | < 1000 nM
9 | CNCC1Cc2cc(F)ccc2Oc2ccccc21 (single isomer, unassigned) [Compound 98, (R*)-(2-fluoro-10,11-dihydrodibenzo[b,f]oxepin-10-yl)-N-methylmethanamine] | < 1000 nM | – | 1000 to 10000 nM | < 1000 nM
10 | NCC1Cc2ccccc2Oc2c(F)cccc21 (single isomer, unassigned) [Compound 100, (R*)-(6-fluoro-10,11-dihydrodibenzo[b,f]oxepin-10-yl)methanamine] | < 1000 nM | – | ≥ 10000 nM | < 1000 nM
11 | NCC1Cc2ccccc2Oc2c(F)cccc21 (single isomer, unassigned) [Compound 101, (S*)-(6-fluoro-10,11-dihydrodibenzo[b,f]oxepin-10-yl)methanamine] | < 1000 nM | – | ≥ 10000 nM | > 10000 nM
12 | CNCC1Cc2ccccc2Oc2c(F)cccc21 (single isomer, unassigned) [Compound 102, (R*)-(6-fluoro-10,11-dihydrodibenzo[b,f]oxepin-10-yl)-N-methylmethanamine] | < 1000 nM | – | ≥ 10000 nM | < 1000 nM
13 | NCC1Cc2ccccc2Oc2cccc(F)c21 (single isomer, unassigned) [Compound 104, (R*)-(9-fluoro-10,11-dihydrodibenzo[b,f]oxepin-10-yl)methanamine] | < 1000 nM | – | ≥ 10000 nM | 1000 to 10000 nM
14 | NCC1Cc2ccccc2Oc2cccc(F)c21 (single isomer, unassigned) [Compound 105, (S*)-(9-fluoro-10,11-dihydrodibenzo[b,f]oxepin-10-yl)methanamine] | 1000 to 10000 nM | – | ≥ 10000 nM | > 10000 nM
15 | CNCC1Cc2ccccc2Oc2cccc(F)c21 (single isomer, unassigned) [Compound 106, (R*)-(9-fluoro-10,11-dihydrodibenzo[b,f]oxepin-10-yl)-N-methylmethanamine] | < 1000 nM | – | ≥ 10000 nM | < 1000 nM
16 | CNCC1Cc2ccccc2Oc2cccc(F)c21 (single isomer, unassigned) [Compound 107, (S*)-(9-fluoro-10,11-dihydrodibenzo[b,f]oxepin-10-yl)-N-methylmethanamine] | > 10000 nM | – | ≥ 10000 nM | 1000 to 10000 nM
17 | CCNCC1Cc2ccccc2Oc2cccnc21 (single isomer, unassigned) [Compound 109, (R*)-1-(10,11-dihydrobenzo-[6,7]oxepino[3,2-b]pyridin-11-yl)-N-ethylmethanamine] | < 1000 nM | – | ≥ 10000 nM | 1000 to 10000 nM
18 | CN(C)CC1Cc2ccccc2Oc2cccnc21 (single isomer, unassigned) [Compound 111, (R*)-1-(10,11-dihydro-benzo[6,7]oxepino[3,2-b]pyridin-11-yl)-N,N-dimethylmethanamine] | < 1000 nM | – | ≥ 10000 nM | 1000 to 10000 nM
19 | NCC1Cc2cc(Cl)ccc2Oc2cccnc21 (single isomer, unassigned) [Compound 120, (S*)-(8-chloro-10,11-dihydrobenzo[6,7]oxepino[3,2-b]pyridin-11-yl)methanamine] | < 1000 nM | – | ≥ 10000 nM | 1000 to 10000 nM
20 | NCC1Cc2cc(Cl)ccc2Oc2cccnc21 (single isomer, unassigned) [Compound 121, (R*)-(8-chloro-10,11-dihydrobenzo[6,7]oxepino[3,2-b]pyridin-11-yl)methanamine] | < 1000 nM | – | < 1000 nM | < 1000 nM
21 | CNCC1Cc2cc(Cl)ccc2Oc2cccnc21 (single isomer, unassigned) [Compound 122, (S*)-(8-chloro-10,11-dihydrobenzo[6,7]oxepino[3,2-b]pyridin-11-yl)-N-methylmethanamine] | < 1000 nM | – | 1000 to 10000 nM | < 1000 nM
22 | CNCC1Cc2cc(Cl)ccc2Oc2cccnc21 (single isomer, unassigned) [Compound 123, (R*)-(8-chloro-10,11-dihydrobenzo[6,7]oxepino[3,2-b]pyridin-11-yl)-N-methylmethanamine] | < 1000 nM | < 1000 nM | < 1000 nM | –
23 | NCC1Cc2ccc(Cl)cc2Oc2cccnc21 (single isomer, unassigned) [Compound 124, (S*)-(7-chloro-10,11-dihydrobenzo[6,7]oxepino[3,2-b]pyridin-11-yl)methanamine] | < 1000 nM | – | ≥ 10000 nM | 1000 to 10000 nM
24 | NCC1Cc2ccc(Cl)cc2Oc2cccnc21 (single isomer, unassigned) [Compound 125, (R*)-(7-chloro-10,11-dihydrobenzo[6,7]oxepino[3,2-b]pyridin-11-yl)methanamine] | < 1000 nM | – | ≥ 10000 nM | > 10000 nM
25 | CNCC1Cc2ccc(Cl)cc2Oc2cccnc21 (single isomer, unassigned) [Compound 126, (S*)-(7-chloro-10,11-dihydrobenzo[6,7]oxepino[3,2-b]pyridin-11-yl)-N-methylmethanamine] | < 1000 nM | – | ≥ 10000 nM | < 1000 nM
26 | CNCC1Cc2ccc(Cl)cc2Oc2cccnc21 (single isomer, unassigned) [Compound 127, (R*)-(7-chloro-10,11-dihydrobenzo[6,7]oxepino[3,2-b]pyridin-11-yl)-N-methylmethanamine] | < 1000 nM | < 1000 nM | 1000 to 10000 nM | –
27 | Cc1ccc2c(c1)CC(CN)c1ncccc1O2 (single isomer, unassigned) [Compound 128, (S*)-(8-methyl-10,11-dihydrobenzo[6,7]oxepino[3,2-b]pyridin-11-yl)methanamine] | < 1000 nM | – | 1000 to 10000 nM | 1000 to 10000 nM
28 | Cc1ccc2c(c1)CC(CN)c1ncccc1O2 (single isomer, unassigned) [Compound 129, (R*)-(8-methyl-10,11-dihydrobenzo[6,7]oxepino[3,2-b]pyridin-11-yl)methanamine] | < 1000 nM | – | < 1000 nM | < 1000 nM
29 | CNCC1Cc2cc(C)ccc2Oc2cccnc21 (single isomer, unassigned) [Compound 130, (S*)—N-methyl-1-(8-methyl-10,11-dihydrobenzo[6,7]oxepino[3,2-b]pyridin-11-yl)methanamine] | < 1000 nM | – | 1000 to 10000 nM | < 1000 nM

— patent publication US20240245658A1, “TAAR1 AND SEROTONIN MODULATORS, AND PHARMACEUTICAL COMPOSITIONS, AND METHODS OF USE THEREOF” (Sunovion Pharmaceuticals Inc., priority 2021, published 2024)
